Source: ChEMBL document CHEMBL1201862, “PubChem BioAssay data set” (2004)
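A five-concentration, 48-hour dose response in 96-well plates underlies each endpoint, interpolated linearly between surrounding concentrations. GI50 marks 50% less growth.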 Active and inactive are the calls of the source. Rule as the data show it: active = GI50 up to about 1.1 µM and inactive = higher.

Assays:
Assay in all cases: DTP human tumour cell line panel, 48 h
786-0 = test system: 786-0
A498 = test system: A498
A549 = test system: A549
ACHN = test system: ACHN
BT-549 = test system: BT-549
CAKI-1 = test system: CAKI-1
CCRF-CEM = test system: CCRF-CEM
COLO 205 = test system: COLO 205
DU-145 = test system: DU-145
EKVX = test system: EKVX
HCC 2998 = test system: HCC 2998
HCT-116 = test system: HCT-116
HCT-15 = test system: HCT-15
HOP-62 = test system: HOP-62
HOP-92 = test system: HOP-92
HT-29 = test system: HT-29
Hs-578T = test system: Hs-578T
IGROV-1 = test system: IGROV-1
K562 = test system: K562
KM12 = test system: KM12
LOX IMVI = test system: LOX IMVI
M14 = test system: M14
MCF7 = test system: MCF7
MDA-MB-231 = test system: MDA-MB-231
MDA-MB-435 = test system: MDA-MB-435
MDA-N = test system: MDA-N
MOLT-4 = test system: MOLT-4
Malme-3M = test system: Malme-3M
NCI-H226 = test system: NCI-H226
NCI-H23 = test system: NCI-H23
NCI-H460 = test system: NCI-H460
NCI-H522 = test system: NCI-H522
NCI/ADR-RES = test system: NCI/ADR-RES
OVCAR-3 = test system: OVCAR-3
OVCAR-4 = test system: OVCAR-4
OVCAR-5 = test system: OVCAR-5
OVCAR-8 = test system: OVCAR-8
PC-3 = test system: PC-3
RPMI-8226 = test system: RPMI-8226
RXF 393 = test system: RXF 393
SF-268 = test system: SF-268
SF-295 = test system: SF-295
SK-MEL-28 = test system: SK-MEL-28
SK-MEL-2 = test system: SK-MEL-2
SK-MEL-5 = test system: SK-MEL-5
SK-OV-3 = test system: SK-OV-3
SNB-19 = test system: SNB-19
SNB-75 = test system: SNB-75
SW-620 = test system: SW-620
TK-10 = test system: TK-10
U-251 = test system: U-251
UACC-257 = test system: UACC-257
UACC-62 = test system: UACC-62
UO-31 = test system: UO-31
HL-60 = test system: HL-60
SF-539 = test system: SF-539
SN12C = test system: SN12C
SR = test system: SR

Measured: GI50

C[C@]12CC(c3ccccc3O1)C(C(=O)NC13CC4CC(CC(C4)C1)C3)C(=O)N2 (stereo not given in full)
active: EKVX 0.249 µM
25.9 µM: HCT-15
inactive: 786-0 18.3 µM | A498 39.9 µM | A549 21.1 µM | ACHN 34.1 µM | BT-549 28.1 µM | CAKI-1 38.6 µM | CCRF-CEM 20 µM | COLO 205 15.6 µM | DU-145 38.4 µM | HCC 2998 29 µM | HCT-116 18.4 µM | HOP-62 44.3 µM | HOP-92 20.7 µM | HT-29 16.1 µM | Hs-578T 55.7 µM | IGROV-1 31.4 µM | K562 14 µM | KM12 35.5 µM | LOX IMVI 23.4 µM | M14 15.6 µM | MCF7 39.5 µM | MDA-MB-231 34.4 µM | MDA-MB-435 26.2 µM | MDA-N 18.1 µM | MOLT-4 12 µM | Malme-3M 33 µM | NCI-H226 23.6 µM | NCI-H23 23.7 µM | NCI-H460 35.4 µM | NCI-H522 39 µM | NCI/ADR-RES 20.3 µM | OVCAR-3 44.9 µM | OVCAR-4 52.6 µM | OVCAR-5 19.5 µM | OVCAR-8 26.6 µM | PC-3 32.1 µM | RPMI-8226 16 µM | RXF 393 25.6 µM | SF-268 32.1 µM | SF-295 44.8 µM | SK-MEL-28 28.3 µM | SK-MEL-2 19.9 µM | SK-MEL-5 17.9 µM | SK-OV-3 64.9 µM | SNB-19 23.4 µM | SNB-75 27.5 µM | SW-620 46.3 µM | TK-10 70.1 µM | U-251 36.6 µM | UACC-257 35.7 µM | UACC-62 46.8 µM | UO-31 20 µM

CNc1nc(N)c(N=O)c(Nc2ccc(Br)cc2)n1
> 100 µM: HCT-15
inactive: 786-0 > 100 µM | A549 > 100 µM | ACHN 53.2 µM | BT-549 > 100 µM | CCRF-CEM 81.8 µM | COLO 205 > 100 µM | DU-145 > 100 µM | EKVX 13.7 µM | HCC 2998 > 100 µM | HCT-116 > 100 µM | HL-60 > 100 µM | HOP-62 > 100 µM | HT-29 > 100 µM | Hs-578T 5.35 µM | IGROV-1 > 100 µM | K562 > 100 µM | KM12 > 100 µM | LOX IMVI > 100 µM | MCF7 > 100 µM | MDA-MB-231 > 100 µM | MDA-MB-435 > 100 µM | MDA-N > 100 µM | MOLT-4 68.4 µM | Malme-3M > 100 µM | NCI-H23 > 100 µM | NCI-H460 > 100 µM | NCI-H522 > 100 µM | NCI/ADR-RES > 100 µM | OVCAR-3 > 100 µM | OVCAR-5 > 100 µM | OVCAR-8 > 100 µM | PC-3 > 100 µM | RPMI-8226 > 100 µM | RXF 393 > 100 µM | SF-268 72.9 µM | SF-295 > 100 µM | SF-539 > 100 µM | SK-MEL-28 > 100 µM | SK-MEL-2 > 100 µM | SK-MEL-5 > 100 µM | SN12C > 100 µM | SNB-19 > 100 µM | SNB-75 68.5 µM | SR > 100 µM | SW-620 > 100 µM | TK-10 > 100 µM | U-251 61.8 µM | UACC-257 > 100 µM | UACC-62 > 100 µM | UO-31 9.57 µM
